Values of other authors in patent publication EP1001773B1, “ORAL SOLID PHARMACEUTICAL COMPOSITIONS CONTAINING NICORANDIL FOR A MODULATED RELEASE AND THE PROCESS FOR THEIR PREPARATION” (Biomedica Foscama Industria Chimico-Farmaceutica S.p.A., priority 1997, dated 1999).

Conditions: orally administered, conventional tablets; Am.J.Cardiol. 1989, 63, 25J-33J

Tmax.: 30 min
SMILES: O=C(NCCO[N+](=O)[O-])c1cccnc1 [Nicorandil, N-(2-hydroxyethyl) nicotinamide nitric ester]
